Entries after “also recorded” stand apart in the source; their conditions may differ.
Test: Cystic fibrosis trial: clinical chemistry, nephrotoxicity, tolerability
Type: in vivo, human
Conditions: for Serum Creatinine Mean (SD): baseline 0.77 (0.24); for Blood Urea Nitrogen Mean (SD): baseline 12.81 (4.73); for Bilirubin (Total) / Creatinine / Magnesium / Phosphorus / Albumin / Potassium / Uric Acid / Total Protein / Calcium / BUN / AST/SGOT / ALT/SGPT / GGT / Bicarbonate / Triglyceride / Alkaline Phosphatase / Glucose / Chloride / Total Cholesterol / Sodium / LDH: ITT Population; for Bilirubin (Total): Screening/Baseline 0.46; for Creatinine: Screening/Baseline 0.77; for Magnesium: Screening/Baseline 2.11; for Phosphorus: Screening/Baseline 3.62; for Albumin: Screening/Baseline 3.80; for Potassium: Screening/Baseline 4.33; for Uric Acid: Screening/Baseline 5.63; for Total Protein: Screening/Baseline 7.17; for Calcium: Screening/Baseline 8.84; for BUN: Screening/Baseline 12.81; for AST/SGOT: Screening/Baseline 16.86; for ALT/SGPT: Screening/Baseline 17.05; for GGT: Screening/Baseline 22; for Bicarbonate: Screening/Baseline 26.05; for Triglyceride: Screening/Baseline 78.33; for Alkaline Phosphatase: Screening/Baseline 97.71; for Glucose: Screening/Baseline 101.24; for Chloride: Screening/Baseline 101.95; for Total Cholesterol: Screening/Baseline 126.43; for Sodium: Screening/Baseline 135.71; for LDH: Screening/Baseline 161.48
Experimental: Thirty of 80 participants were enrolled starting in January 2019. They were Cystic fibrosis patients ages 18-70 that had acute pulmonary exacerbation or acute respiratory infections that required treatment with IV tobramycin 10 mg/kg/d for 10-21 days. They were randomized into four groups (1:1:1:1) (0, 200, 400, or 600 BID) and treated for 21 days. There were four follow-up visits for safety (adverse events, spirometry, labs), and two follow-up visits for efficacy (audiometric and vestibular). The primary endpoint was a reduction in cochleotoxic change, and the secondary endpoints was a reduction in tinnitus or vertigo severity.

[1] = Visit 3, end of tobramycin treatment
[2] = Visit 4, two weeks after end of tobramycin treatment
[3] = Visit 5, four weeks after end of tobramycin treatment

O=c1c2ccccc2[se]n1-c1ccccc1 [ebselen, 2-phenyl-1,2-benzisoselenazol-3(2H)-one]
Serum Creatinine Mean (SD) (Visit 2, on tobramycin and study treatment, normal 0.49-1.44): 0.80 (0.22) mg/dl | Blood Urea Nitrogen Mean (SD) (Visit 2, on tobramycin and study treatment, normal 5-22): 14.68 (4.80) mg/dl | Bilirubin (Total) (Visit 2): 0.41 | Creatinine (Visit 2): 0.80 | Magnesium (Visit 2): 2.21 | Phosphorus (Visit 2): 3.61 | Albumin (Visit 2): 3.87 | Potassium (Visit 2): 4.22 | Uric Acid (Visit 2): 4.89 | Total Protein (Visit 2): 7.17 | Calcium (Visit 2): 8.86 | BUN (Visit 2): 14.68 | AST/SGOT (Visit 2): 26.45 | ALT/SGPT (Visit 2): 31.41 | GGT (Visit 2): 25 | Bicarbonate (Visit 2): 26.73 | Triglyceride (Visit 2): 114.82 | Alkaline Phosphatase (Visit 2): 93.41 | Glucose (Visit 2): 120.95 | Chloride (Visit 2): 100.68 | Total Cholesterol (Visit 2): 139.68 | Sodium (Visit 2): 136.36 | LDH (Visit 2): 165.45 | Serum Creatinine Mean (SD) [1]: 0.78 (0.20) mg/dl | Blood Urea Nitrogen Mean (SD) [1]: 15.11 (5.56) mg/dl | Bilirubin (Total) (Visit 3): 0.45 | Creatinine (Visit 3): 0.78 | Magnesium (Visit 3): 2.19 | Phosphorus (Visit 3): 3.68 | Albumin (Visit 3): 4.05 | Potassium (Visit 3): 4.25 | Uric Acid (Visit 3): 5 | Total Protein (Visit 3): 7.29 | Calcium (Visit 3): 9.03 | BUN (Visit 3): 15.11 | AST/SGOT (Visit 3): 27.58 | ALT/SGPT (Visit 3): 35.63 | GGT (Visit 3): 28.32 | Bicarbonate (Visit 3): 27.42 | Triglyceride (Visit 3): 114.84 | Alkaline Phosphatase (Visit 3): 90.16 | Glucose (Visit 3): 102.53 | Chloride (Visit 3): 100.68 | Total Cholesterol (Visit 3): 151.89 | Sodium (Visit 3): 136.05 | LDH (Visit 3): 166.37 | Serum Creatinine Mean (SD) [2]: 0.78 (0.19) mg/dl | Blood Urea Nitrogen Mean (SD) [2]: 14.94 (6.66) mg/dl | Bilirubin (Total) (Visit 4): 0.49 | Creatinine (Visit 4): 0.78 | Magnesium (Visit 4): 2.06 | Phosphorus (Visit 4): 3.84 | Albumin (Visit 4): 4.08 | Potassium (Visit 4): 4.16 | Uric Acid (Visit 4): 5.63 | Total Protein (Visit 4): 7.49 | Calcium (Visit 4): 9.12 | BUN (Visit 4): 14.94 | AST/SGOT (Visit 4): 18.22 | ALT/SGPT (Visit 4): 20.44 | GGT (Visit 4): 23.11 | Bicarbonate (Visit 4): 25.94 | Triglyceride (Visit 4): 96.06 | Alkaline Phosphatase (Visit 4): 104.50 | Glucose (Visit 4): 132.56 | Chloride (Visit 4): 100.94 | Total Cholesterol (Visit 4): 134.78 | Sodium (Visit 4): 135.17 | LDH (Visit 4): 158.83 | Serum Creatinine Mean (SD) [3]: 0.81 (0.24) mg/dl | Blood Urea Nitrogen Mean (SD) [3]: 13.45 (6.49) mg/dl | Bilirubin (Total) (Visit 5): 0.46 | Creatinine (Visit 5): 0.81 | Magnesium (Visit 5): 2.16 | Phosphorus (Visit 5): 3.72 | Albumin (Visit 5): 3.98 | Potassium (Visit 5): 4.25 | Uric Acid (Visit 5): 5.62 | Total Protein (Visit 5): 7.38 | Calcium (Visit 5): 9.11 | BUN (Visit 5): 13.45 | AST/SGOT (Visit 5): 26.60 | ALT/SGPT (Visit 5): 22.45 | GGT (Visit 5): 20.65 | Bicarbonate (Visit 5): 26.15 | Triglyceride (Visit 5): 89.95 | Alkaline Phosphatase (Visit 5): 101.70 | Glucose (Visit 5): 119.05 | Chloride (Visit 5): 101.80 | Total Cholesterol (Visit 5): 137.60 | Sodium (Visit 5): 136.45 | LDH (Visit 5): 213.58 | nephrotoxicity (after IV tobramycin and SPI-1005 or placebo treatment): no significant nephrotoxicity; also recorded: lack of nephrotoxicity | tolerability (human, in vivo, iv): well tolerated

From US20230165835A1, “METHODS OF TREATING ACUTE LUNG INJURY USING EBSELEN” (SOUND PHARMACEUTICALS INC., priority 2020, published 2023)
